{
  "source": "patent US20090042898A1",
  "about": "“USE OF COMPOUNDS ACTIVE ON THE SIGMA RECEPTOR FOR THE TREATMENT OF MECANICAL ALLODYNIA” (priority 2004, published 2009)",
  "key": {"[1]": {"test_system": "mechanical allodynia in mice exposed to the sciatic nerve injury", "assay": "Von Frey model in mice exposed to sciatic nerve injury (partial sciatic nerve ligation)", "type": "in vivo", "settings": "FIG. 5, 60 mg/kg subcutaneous, Day 11 after surgery, ipsilateral", "procedure": "The partial sciatic nerve ligation model was used to induce neuropathic pain (Malmberg and Basbaum, Pain 76: 215-222, 1998). This model consists of injury to the sciatic nerve at mid-to high level. Briefly, mice were anaesthetized with halothane (induction: 3%; surgery: 1%) and the common sciatic nerve was exposed at the level of the mid-thigh of the right paw. In control animals (sham-operated mice), an identical dissection was performed on the right paw except that the sciatic nerve was not ligated (Control). Nociceptive sensitivity was then measured was quantified by measuring the hind paw withdrawal response to von Frey filament stimulation as mentioned above. Animals underwent surgery on day 0; 11 days after surgery BD-1063 was injected subcutaneously in one group and the responses to mechanical stimuli were determined by means of the von Frey model in this and the none-treated group (before surgery) a reference value was measured in order to determine a baseline value."}, "sigma receptor": {"test_system": "sigma receptor", "settings": "Sigma 1 and Sigma 2 for pentazocine; cited from earlier work"}, "[2]": {"test_system": "capsaicin-induced allodynia", "assay": "Von Frey model, capsaicin-induced mechanical allodynia", "type": "in vivo, mice", "excerpt": "The von Frey model is a model for allodynia, stimulated mechanically (mechanical allodynia).\nInterest of the model: • The injection of capsaicin to experimental animals produces acute pain followed by allodynia • The mechanisms involved in capsaicin-induced acute pain and allodynia are relatively well known (mainly activation of peripheral nociceptors and sensitization of spinal cord neurons, respectively)\nAfter habituation mice were according to FIG. 1 first treated with the test-compound (or not in controls). Then capsaicin (1% DMSO) is injected into their paw resulting in developing pain in the effected paw. The effected paw is then treated with a mechanical stimulus and the latency time before the paw is withdrawn is measured.\n2 well known antisense Oligodesoxynucleotides (ODN) against the sigma 1 receptor (King et al. (1997) Eur J Pharmacol 331:R5-R6 and Ueda et al. (2001) J. Pharmacol. Exp. Ther. 298, 703-710) were synthesized and according to the protocol shown in FIG. 3a) given on 4 consecutive days i.c.v. followed by a wash-out period and von-Frey tests according to example 1."}},
  "data": [
    {"molecule": "CN1CCN(CCc2ccc(Cl)c(Cl)c2)CC1", "note": "[BD-1063, 1-(3,4-dichlorophenethyl)-4-methylpiperazine]", "values": [
      {"measurement": "effect on mechanical allodynia, von Frey model", "setting": "[1]", "value": "antagonizes mechanical allodynia in mice exposed to the (ipsilateral) sciatic nerve injury significantly"}
    ]},
    {"molecule": "CCCN(CCC)CCc1ccc(OC)c(OCCc2ccccc2)c1", "note": "[NE-100]", "values": [
      {"measurement": "affinity to the sigma receptor", "setting": "sigma receptor", "value": "high affinity"},
      {"measurement": "analgesia in capsaicin-induced allodynia, dose dependency", "setting": "[2]; FIG. 2a, mice, von Frey filaments", "value": "dose dependency of the treatment with NE-100 showing analgesia"},
      {"measurement": "efficacy depending on the force of the von-Frey filaments (0.5 g allodynia vs 4 g general pain)", "setting": "[2]; FIG. 2b, NE-100 64 mg/kg", "value": "effective specifically in allodynia or mechanical allodynia and not general pain"}
    ]},
    {"molecule": "O=C(OCCN1CCOCC1)C1(c2ccccc2)CCCCC1", "note": "[PRE-084]", "values": [
      {"measurement": "effect of sigma receptor agonist on the effect of NE-100", "setting": "[2]; FIG. 2c, given with NE-100", "value": "counteracting the effect of NE-100"}
    ]},
    {"molecule": "CC(C)=CCN1CCC2(C)c3cc(O)ccc3CC1C2C", "note": "(stereo not drawn) [pentazocine]", "values": [
      {"measurement": "affinity to the sigma receptor", "setting": "sigma receptor", "value": "very high affinity"}
    ]}
  ]
}
